Our source for the CC50 and MIC values is US20160194299A1 (priority 2013, published 2016).

Each structure is given as a SMILES string. In brackets after ≈: the same amount, converted by molar mass. Read-outs that look alike come from different tables or passages of the source.

The nature of one data set: in vitro. Particulars: African green monkey.
Data set [1] concerns Mtb. Briefly: microbe, parasite or virus in culture. Format: cell-based, Mycobacterium tuberculosis. The following applies: Mycobacterium tuberculosis, read-out: MIC (III).
Data set [2] deals with Mtb. The experiment in a line: microbe, parasite or virus in culture. Format: cell-based, Mycobacterium tuberculosis. The following applies: Mycobacterium tuberculosis, read-out: MIC (I).

In the case of `CCOC(=O)NC(=O)c1ccsc1NC(=O)c1ccc2sc(N3CCOCC3)nc2c1` [Compound 58], the CC50 in the data set “in vitro” is greater than 50 µg/mL. Moreover, the MIC in the data set with Mtb [1] was 5 to 25 µg/mL (≈ 10.9 to 54.3 µM); with Mtb [2], less than 1 µg/mL.

With `CCOC(=O)NC(=O)c1ccsc1NC(=O)c1ccc2sc(N3CCN(C)CC3)nc2c1` [Compound 59], the CC50 in the data set “in vitro” was greater than 50 µg/mL. Moreover, the results for the MIC with Mtb [1] and in the data set on Mtb [2] were 5 to 25 µg/mL (≈ 10.6 to 52.8 µM) and less than 1 µg/mL, respectively.

On to `CCOC(=O)NC(=O)c1cc(C)sc1NC(=O)c1ccc2scnc2c1` [Compound 62], for which the CC50 in the data set “in vitro” lay within 25 to 50 µg/mL (≈ 64.2 to 128 µM). Moreover, the figures for the MIC in the data set with Mtb [1] and in the data set with Mtb [2] were greater than 25 µg/mL and 1 to 3 µg/mL (≈ 2.57 to 7.7 µM), respectively.

On to `CCOC(=O)NC(=O)c1ccsc1NC(=O)c1ccc2cccnc2c1` [Compound 63], for which, in “in vitro”, the CC50 is greater than 50 µg/mL. Further, the results for the MIC in the data set with Mtb [1] and in the data set on Mtb [2] were 5 to 25 µg/mL (≈ 13.5 to 67.7 µM) and less than 1 µg/mL, respectively.

On to `CCOC(=O)NC(=O)c1ccsc1NC(=O)C1=NNC(=O)CC1` [Compound 64], for which the CC50 in “in vitro” is greater than 50 µg/mL. Besides, the figures for the MIC in the data set on Mtb [1] and in the data set with Mtb [2] were less than 5 µg/mL and less than 1 µg/mL, respectively.

In the data set “in vitro”, `CCOC(=O)NC(=O)c1ccsc1NC(=O)c1cnc2cc(C)nn2c1C` [Compound 65] had a CC50 greater than 50 µg/mL. Besides, the MIC was less than 5 µg/mL in the data set on Mtb [1] and less than 1 µg/mL with Mtb [2].

In the case of `CCOC(=O)NC(=O)c1ccsc1NC(=O)C1=Cc2cccc(OC)c2OC1` [Compound 66], the CC50 in the data set “in vitro” was greater than 50 µg/mL. The MIC is less than 5 µg/mL with Mtb [1] and less than 1 µg/mL in the data set with Mtb [2].

In the case of `CCOC(=O)NC(=O)c1ccsc1NC(=O)C1=Cc2ccccc2OC1` [Compound 67], the CC50 in the data set “in vitro” was greater than 50 µg/mL. Moreover, the MIC in the data set with Mtb [1] was less than 5 µg/mL; in the data set on Mtb [2] it was less than 1 µg/mL.

In “in vitro”, `CCOC(=O)NC(=O)c1ccsc1NC(=O)C1=Cc2cc(OC)ccc2OC1` [Compound 68] returned a CC50 greater than 50 µg/mL. The MIC was less than 5 µg/mL with Mtb [1] and less than 1 µg/mL with Mtb [2].

In turn, `CCOC(=O)NC(=O)c1ccsc1NC(=O)c1ccc2cccnc2n1` [Compound 69] gave a CC50 in the data set “in vitro” of less than 25 µg/mL. Besides, the MIC in the data set with Mtb [1] is less than 5 µg/mL; in the data set with Mtb [2], less than 1 µg/mL.

In turn, `CCOC(=O)NC(=O)c1ccsc1NC(=O)C1COc2cc(OC)ccc2C1` (stereo not drawn) [Compound 70] showed a CC50 in the data set “in vitro” greater than 50 µg/mL. The MIC is greater than 25 µg/mL with Mtb [1] and greater than 3 µg/mL in the data set on Mtb [2].

`CCOC(=O)NC(=O)c1ccsc1NC(=O)C1COc2ccc(OC)cc2C1` (stereo not drawn) [Compound 71]: the CC50 in “in vitro” is greater than 50 µg/mL. The MIC in the data set with Mtb [1] is less than 5 µg/mL; in the data set with Mtb [2], 1 to 3 µg/mL (≈ 2.47 to 7.42 µM).

For `CCOC(=O)NC(=O)c1ccsc1NC(=O)c1ccc2nccn2c1` [Compound 73], in “in vitro”, the CC50 was greater than 50 µg/mL. Further, the MIC was greater than 25 µg/mL in the data set on Mtb [1] and 1 to 3 µg/mL (≈ 2.79 to 8.37 µM) in the data set on Mtb [2].

Compound `CCOC(=O)NC(=O)c1ccsc1NC(=O)c1noc(C)n1` [Compound 74] displayed a CC50 in “in vitro” of 25 to 50 µg/mL (≈ 77.1 to 154 µM). Also, the MIC was greater than 25 µg/mL in the data set with Mtb [1] and greater than 3 µg/mL with Mtb [2].

With `CCOC(=O)NC(=O)c1ccsc1NC(=O)c1ccc2ncoc2c1` [Compound 75], the CC50 in the data set “in vitro” was greater than 50 µg/mL. Moreover, the MIC with Mtb [1] is greater than 25 µg/mL; in the data set on Mtb [2], greater than 3 µg/mL.

As to `CCOC(=O)NC(=O)c1ccsc1NC(=O)c1ccc2nccn2n1` [Compound 77], the CC50 in “in vitro” is greater than 50 µg/mL. Moreover, the MIC in the data set on Mtb [1] is greater than 25 µg/mL; in the data set with Mtb [2] it was 1 to 3 µg/mL (≈ 2.78 to 8.35 µM).

`CCOC(=O)NC(=O)c1ccsc1NC(=O)c1nc2cnccc2s1` [Compound 82] displayed a CC50 in “in vitro” greater than 50 µg/mL. The MIC with Mtb [1] is less than 5 µg/mL; with Mtb [2], less than 1 µg/mL.

`CCOC(=O)NC(=O)c1ccsc1NC(=O)c1nc2cccnc2s1` [Compound 83] returned a CC50 in “in vitro” greater than 50 µg/mL. The MIC in the data set with Mtb [1] was less than 5 µg/mL; in the data set with Mtb [2], less than 1 µg/mL.

In “in vitro”, `CCOC(=O)NC(=O)c1ccsc1NC(=O)c1nc2c(s1)CNCC2` [Compound 84] returned a CC50 greater than 50 µg/mL. For the same compound, the MIC in the data set with Mtb [1] was greater than 25 µg/mL; in the data set with Mtb [2] it was 1 to 3 µg/mL (≈ 2.63 to 7.89 µM).

`CCOC(=O)NC(=O)c1ccsc1NC(=O)c1nc2c(s1)CCN(C)C2` [Compound 85] showed a CC50 in the data set “in vitro” greater than 50 µg/mL. For the same compound, the MIC in the data set on Mtb [1] is less than 5 µg/mL; in the data set on Mtb [2], 1 to 3 µg/mL (≈ 2.53 to 7.6 µM).

Compound `CCOC(=O)NC(=O)c1ccsc1NC(=O)c1ccnnc1` [Compound 86] gave a CC50 in the data set “in vitro” greater than 50 µg/mL. Besides, the MIC in the data set with Mtb [1] lay in the range of 5 to 25 µg/mL (≈ 15.6 to 78 µM); in the data set on Mtb [2], 1 to 3 µg/mL (≈ 3.12 to 9.37 µM).

In turn, `CCOC(=O)NC(=O)c1ccsc1NC(=O)c1cnc2ccccc2n1` [Compound 87] showed a CC50 in the data set “in vitro” greater than 50 µg/mL. Moreover, the MIC was less than 5 µg/mL with Mtb [1] and less than 1 µg/mL in the data set with Mtb [2].

`CCOC(=O)NC(=O)c1ccsc1NC(=O)c1sc2ccccc2c1Cl` [Compound 88]: the CC50 in the data set “in vitro” was greater than 50 µg/mL. The MIC with Mtb [1] is 5 to 25 µg/mL (≈ 12.2 to 61.1 µM); in the data set with Mtb [2], less than 1 µg/mL.

In “in vitro”, `CCOC(=O)NC(=O)c1ccsc1NC(=O)c1ccc2ncccc2c1` [Compound 89] registered a CC50 greater than 50 µg/mL. Moreover, the figures for the MIC with Mtb [1] and in the data set on Mtb [2] were 5 to 25 µg/mL (≈ 13.5 to 67.7 µM) and 1 to 3 µg/mL (≈ 2.71 to 8.12 µM), respectively.

Regarding `CCOC(=O)NC(=O)c1ccsc1NC(=O)c1cc2ccccc2s1` [Compound 90], in “in vitro”, the CC50 lay in the range of 25 to 50 µg/mL (≈ 66.8 to 134 µM). In addition, the values for the MIC in the data set on Mtb [1] and with Mtb [2] were less than 5 µg/mL and less than 1 µg/mL, respectively.

The compound `CCOC(=O)NC(=O)c1ccsc1NC(=O)c1ccc(=O)[nH]n1` [Compound 91] had a CC50 in the data set “in vitro” greater than 50 µg/mL. Besides, the values for the MIC with Mtb [1] and in the data set on Mtb [2] were less than 5 µg/mL and 1 to 3 µg/mL (≈ 2.97 to 8.92 µM), respectively.

`CCOC(=O)NC(=O)c1ccsc1NC(=O)C1COc2ccccc2O1` (stereo not drawn) [Compound 92] displayed a CC50 in the data set “in vitro” of 25 to 50 µg/mL (≈ 66.4 to 133 µM). Further, the MIC with Mtb [1] is 5 to 25 µg/mL (≈ 13.3 to 66.4 µM); in the data set with Mtb [2], greater than 3 µg/mL.

On to `CCOC(=O)NC(=O)c1ccsc1NC(=O)c1cn2ncccc2n1` [Compound 93], for which the CC50 in the data set “in vitro” was greater than 50 µg/mL. Besides, the figures for the MIC with Mtb [1] and with Mtb [2] were less than 5 µg/mL and less than 1 µg/mL, respectively.

Regarding `CCOC(=O)NC(=O)c1ccsc1NC(=O)c1nc2cnc(C)cc2s1` [Compound 94], in “in vitro”, the CC50 is greater than 50 µg/mL. Further, the MIC in the data set on Mtb [1] is greater than 25 µg/mL; in the data set on Mtb [2], less than 1 µg/mL.

Regarding `CCOC(=O)NC(=O)c1ccsc1NC(=O)c1nc2c(s1)CCN(c1ccccc1)C2` [Compound 97], the CC50 in “in vitro” was greater than 50 µg/mL. Moreover, the MIC with Mtb [1] was greater than 25 µg/mL; in the data set on Mtb [2], less than 1 µg/mL.

Compound `C=CCOC(=O)NC(=O)c1ccsc1NC(=O)c1nc2cnccc2s1` [Compound 99] returned a CC50 in the data set “in vitro” of 25 to 50 µg/mL (≈ 64.4 to 129 µM). In addition, the MIC with Mtb [1] was less than 5 µg/mL; in the data set with Mtb [2], less than 1 µg/mL.

Turning to `C#CCOC(=O)NC(=O)c1ccsc1NC(=O)c1nc2cnccc2s1` [Compound 100], in “in vitro”, the CC50 lay within 25 to 50 µg/mL (≈ 64.7 to 129 µM). Moreover, the figures for the MIC with Mtb [1] and with Mtb [2] were greater than 25 µg/mL and less than 1 µg/mL, respectively.

With `O=C(NC(=O)c1ccsc1NC(=O)c1nc2cnccc2s1)OCc1ccccc1` [Compound 101], the CC50 in the data set “in vitro” was greater than 50 µg/mL. Further, the MIC is 5 to 25 µg/mL (≈ 11.4 to 57 µM) with Mtb [1] and less than 1 µg/mL with Mtb [2].

Take `O=C(NC(=O)c1ccsc1NC(=O)c1nc2cnccc2s1)OC1CCOC1` (stereo not drawn) [Compound 102]: in the data set “in vitro”, the CC50 is greater than 50 µg/mL. The figures for the MIC in the data set on Mtb [1] and in the data set with Mtb [2] were less than 5 µg/mL and less than 1 µg/mL, respectively.

Turning to `COCCOC(=O)NC(=O)c1ccsc1NC(=O)c1nc2cnccc2s1` [Compound 103], the CC50 in “in vitro” was greater than 50 µg/mL. The MIC was greater than 25 µg/mL in the data set with Mtb [1] and less than 1 µg/mL in the data set on Mtb [2].

`CC(C)OC(=O)NC(=O)c1cc(F)sc1NC(=O)c1nc2cnccc2s1` [Compound 104]: the CC50 in “in vitro” is less than 25 µg/mL. Also, the MIC in the data set with Mtb [1] was less than 5 µg/mL; with Mtb [2], less than 1 µg/mL.

Compound `CCOC(=O)NC(=O)c1ccsc1NC(=O)c1cccc2cccnc12` [Compound 112] had a CC50 in “in vitro” greater than 50 µg/mL. Moreover, the MIC is greater than 25 µg/mL in the data set on Mtb [1] and greater than 3 µg/mL in the data set on Mtb [2].
